Results on 24 compounds are retold here after ChEMBL document CHEMBL4251632, “Synthesis and antidepressant-like activity of novel aralkyl piperazine derivatives targeting SSRI/5-HT1A/5-HT7” (Eur J Med Chem, 2018).

Series [1] deals with T1, 5-hydroxytryptamine receptor 7 (Homo sapiens, UniProt P34969). In words: Displacement of [3H]LSD from recombinant human 5-HT7 receptor expressed in CHO cell membranes at 10 uM after 120 mins by TopCount scintillation counting method relative to control.
The target in series [2] is T2, 5-hydroxytryptamine receptor 1A (Homo sapiens) (UniProt P08908).
T2 sequence (whole entry): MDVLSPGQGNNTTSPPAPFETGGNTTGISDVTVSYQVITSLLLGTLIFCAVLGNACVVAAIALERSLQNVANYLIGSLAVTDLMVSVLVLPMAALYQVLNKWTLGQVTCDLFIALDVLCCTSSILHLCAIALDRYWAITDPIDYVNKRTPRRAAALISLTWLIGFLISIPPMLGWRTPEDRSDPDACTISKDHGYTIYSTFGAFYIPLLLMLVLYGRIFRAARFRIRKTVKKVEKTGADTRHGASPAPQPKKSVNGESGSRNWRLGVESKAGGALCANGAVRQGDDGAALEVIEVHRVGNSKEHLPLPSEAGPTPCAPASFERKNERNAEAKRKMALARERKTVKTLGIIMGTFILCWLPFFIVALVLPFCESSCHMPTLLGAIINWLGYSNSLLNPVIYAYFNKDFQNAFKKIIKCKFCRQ
Nature of the series: Displacement of [3H]8-OH-DPAT from recombinant human 5-HT1A receptor expressed in HEK293 cell membranes at 10 uM after 60 mins by TopCount scintillation counting method relative to control.

Series [3] concerns the target Sodium-dependent serotonin transporter (Rattus norvegicus) (UniProt P31652). Nature of the series: Inhibition of [3H]serotonin reuptake in rat brain synaptosomes SERT at 10 uM after 15 mins by TopCount scintillation counting method relative to control. Type of series: subcellular.
In series [4] the target is T3, 5-hydroxytryptamine receptor 1A (Homo sapiens, UniProt P08908).
T3 sequence (P08908 whole entry): T2 sequence (whole entry)
Nature of the series: Displacement of [3H]8-OH-DPAT from recombinant human 5-HT1A receptor expressed in HEK293 cell membranes after 60 mins by TopCount scintillation counting method.

For series [5], the target named is Sodium-dependent serotonin transporter (Rattus norvegicus, UniProt P31652). Nature of the series: Inhibition of [3H]serotonin reuptake in rat brain synaptosomes SERT after 15 mins by TopCount scintillation counting method. In kind it is subcellular.
Series [6] addresses T1, 5-hydroxytryptamine receptor 7. Nature of the series: Displacement of [3H]LSD from recombinant human 5-HT7 receptor expressed in CHO cell membranes after 120 mins by TopCount scintillation counting method.
A short description of series [7]: in vitro. Particulars: rat, liver microsomes.
Description: Half life in rat liver microsomes at 1 uM in presence of NADPH by LC-MS/MS analysis
Series [8] is described as follows: Clearance in rat liver microsomes at 1 uM in presence of NADPH by LC-MS/MS analysis. Type of series: ADME, microsome. Particulars: read-out: CLH.
The test system of series [9] is Mus musculus. Nature of the series: Antidepressant-like activity in mouse assessed as reduction in immobility time at 20 mg/kg/day, po once daily for 7 days measured for last 4 mins of 6 mins test at 1 hr post last dose by forced swim test relative to control. In kind it is functional. More on the design: scale not given: the % may be the effect or the level left.

The subject of series [10] is Mus musculus. In words: Antidepressant-like activity in mouse assessed as reduction in immobility time at 40 mg/kg/day, po once daily for 7 days measured for last 4 mins of 6 mins test at 1 hr post last dose by forced swim test relative to control. Type of series: functional. More on the design: scale not given: the % may be the effect or the level left.
For series [11], the system named is Mus musculus. Nature of the series: Antidepressant-like activity in po dosed mouse assessed as reduction in immobility time administered once daily for 7 days measured for last 4 mins of 6 mins test at 1 hr post last dose by forced swim test. In kind it is functional, organism-based.
Series [12] has as its system Mus musculus. Nature of the series: Antidepressant-like activity in mouse assessed as reduction in immobility time at 10 mg/kg/day, po once daily for 7 days measured for last 4 mins of 6 mins test at 1 hr post last dose by forced swim test relative to control. Type of series: functional. Details: scale not given: the % may be the effect or the level left.
Series [13] has as its system Mus musculus. In words: Antidepressant-like activity in mouse assessed as reduction in immobility time at 40 mg/kg/day, po administered once daily for 7 days measured for 5 mins at 1 hr post last dose by tail suspension test relative to control. In kind it is functional. More on the design: scale not given: the % may be the effect or the level left.
For series [14], the target named is Sodium-dependent serotonin transporter (Homo sapiens, UniProt P31645).
Description: Inhibition of serotonin reuptake in SERT (unknown origin)

Where only a bound is given, the exact number is not on record here.

T1 sequence (P34969 whole entry): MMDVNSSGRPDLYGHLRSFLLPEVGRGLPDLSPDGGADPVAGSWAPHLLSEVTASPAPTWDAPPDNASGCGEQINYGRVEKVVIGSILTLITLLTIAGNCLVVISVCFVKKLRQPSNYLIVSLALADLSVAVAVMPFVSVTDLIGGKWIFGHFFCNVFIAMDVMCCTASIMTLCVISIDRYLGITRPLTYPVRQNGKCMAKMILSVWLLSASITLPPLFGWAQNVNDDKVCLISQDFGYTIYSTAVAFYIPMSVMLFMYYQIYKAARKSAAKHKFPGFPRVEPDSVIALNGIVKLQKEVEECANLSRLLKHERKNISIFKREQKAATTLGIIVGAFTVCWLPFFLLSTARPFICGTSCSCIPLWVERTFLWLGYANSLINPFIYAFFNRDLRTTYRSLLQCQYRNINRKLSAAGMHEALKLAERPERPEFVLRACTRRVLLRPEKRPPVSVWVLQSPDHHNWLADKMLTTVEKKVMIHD
Chain of Sodium-dependent serotonin transporter (Rattus norvegicus, UniProt P31652) (P31652 whole entry): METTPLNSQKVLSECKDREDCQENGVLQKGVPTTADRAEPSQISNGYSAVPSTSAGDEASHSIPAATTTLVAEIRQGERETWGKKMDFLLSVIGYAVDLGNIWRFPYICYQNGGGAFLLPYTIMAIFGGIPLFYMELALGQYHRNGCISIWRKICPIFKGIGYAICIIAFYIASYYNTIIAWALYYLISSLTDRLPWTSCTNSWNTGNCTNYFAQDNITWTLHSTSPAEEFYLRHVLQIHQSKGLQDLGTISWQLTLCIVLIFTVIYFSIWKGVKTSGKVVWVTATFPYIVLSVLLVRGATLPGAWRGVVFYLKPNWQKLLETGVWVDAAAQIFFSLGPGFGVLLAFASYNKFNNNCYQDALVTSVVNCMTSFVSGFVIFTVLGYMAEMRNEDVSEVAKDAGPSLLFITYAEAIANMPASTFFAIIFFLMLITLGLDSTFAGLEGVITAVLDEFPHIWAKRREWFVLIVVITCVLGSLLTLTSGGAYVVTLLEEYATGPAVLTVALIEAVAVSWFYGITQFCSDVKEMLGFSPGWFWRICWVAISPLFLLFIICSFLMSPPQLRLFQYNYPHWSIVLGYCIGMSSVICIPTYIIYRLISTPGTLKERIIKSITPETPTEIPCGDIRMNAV
Chain of Sodium-dependent serotonin transporter (Rattus norvegicus) (P31652 whole entry): as above
Chain of Sodium-dependent serotonin transporter (Homo sapiens, UniProt P31645) (P31645 whole entry): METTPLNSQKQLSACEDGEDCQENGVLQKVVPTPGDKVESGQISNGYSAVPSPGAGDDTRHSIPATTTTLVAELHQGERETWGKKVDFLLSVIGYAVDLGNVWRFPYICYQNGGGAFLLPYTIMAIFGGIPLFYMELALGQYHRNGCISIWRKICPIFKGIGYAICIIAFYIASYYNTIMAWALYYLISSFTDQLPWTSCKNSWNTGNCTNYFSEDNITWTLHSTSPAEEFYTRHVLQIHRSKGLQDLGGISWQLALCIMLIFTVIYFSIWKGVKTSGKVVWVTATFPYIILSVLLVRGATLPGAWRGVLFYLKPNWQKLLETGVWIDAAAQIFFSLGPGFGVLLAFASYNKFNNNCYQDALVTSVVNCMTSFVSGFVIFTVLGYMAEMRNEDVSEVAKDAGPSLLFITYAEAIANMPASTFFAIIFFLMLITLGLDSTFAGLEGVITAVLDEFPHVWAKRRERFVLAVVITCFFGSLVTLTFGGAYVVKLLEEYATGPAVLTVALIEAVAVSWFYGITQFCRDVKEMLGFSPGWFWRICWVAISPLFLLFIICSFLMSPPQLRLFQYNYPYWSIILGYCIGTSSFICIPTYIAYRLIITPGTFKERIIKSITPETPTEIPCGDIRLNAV

For the compound `c1ccc(-c2cccc(N3CCN(CCc4coc5ccccc45)CC3)c2)cc1`, the inhibition in series [1] amounted to 71.9%; in series [2], 97.5%; in series [3], 99.4%.

With `CSc1ccccc1N1CCN(CCc2coc3ccccc23)CC1`, the figures for the inhibition in [1], in series [2] and in [3] were 86.8%, 99.7% and 112%, respectively.

As to `Fc1ccc2[nH]cc(CCN3CCN(c4ccccc4-c4ccccc4F)CC3)c2c1`, the inhibition in [1], in [2] and in [3] was greater than 90% in each case. Moreover, the values for the inhibition constant (Ki) in [4] and in [6] were 25 nM and 2.3 nM, respectively. This compound returned an IC50 in series [5] of 96 nM. This compound also gave a half-life at 1 µM in series [7] of 4 min. Further, in [8], the microsomal CLint at 1 µM was 343 µL/min/mg.

In the case of `Fc1cccc(-c2c(F)cccc2N2CCN(CCCc3c[nH]c4ccc(F)cc34)CC2)c1`, the inhibition in series [1], in series [2] and in [3] was greater than 90% in each case. The Ki was determined as 18 nM in series [4] and 0.55 nM in [6]. Moreover, the half-maximal inhibitory concentration (IC50) in series [5] stood at 10 nM. In addition, the half-life at 1 µM in series [7] turned out to be 26.9 min. The microsomal CLint at 1 µM in [8] is 51.5 µL/min/mg.

For `COc1ccc(-c2ccccc2N2CCN(CCc3c[nH]c4ccc(F)cc34)CC2)cc1`, the values for the inhibition in series [1], in series [2] and in [3] were 94.7%, 99.2% and 82.8%, respectively.

For the compound `COc1ccccc1N1CCN(CCc2coc3ccccc23)CC1`, the inhibition was 85.6% in series [1], 98.5% in series [2] and 110% in series [3].

Turning to `Fc1cccc(-c2cc(F)ccc2N2CCN(CCCc3c[nH]c4ccc(F)cc34)CC2)c1`, the Activity in series [9] was 21%; in series [10] it was 37%; in series [11], “Dose-dependent effect”; in [12], 18%. Besides, the inhibition in series [1], in [2] and in series [3] was greater than 90% each time. The inhibition constant (Ki) in series [4] turned out to be 62 nM; in series [6] it was 12 nM. In addition, the IC50 in [5] was found to be 31 nM. Moreover, the half-life at 1 µM in series [7] turned out to be 56.8 min. The microsomal CLint at 1 µM in series [8] came to 24.4 µL/min/mg.

Take `Fc1cccc(-c2ccc(F)cc2N2CCN(CCCc3c[nH]c4ccc(F)cc34)CC2)c1`: the inhibition in [1], in series [2] and in series [3] was greater than 90% throughout. Moreover, the Ki in series [4] is 15 nM; in series [6] it was 2.6 nM. Also, the IC50 in series [5] was found to be 9.4 nM. This compound also came in with a half-life at 1 µM in [7] of 28.8 min. Besides, the microsomal CLint at 1 µM in series [8] worked out at 48.1 µL/min/mg.

As to `Fc1ccc2[nH]cc(CCN3CCN(c4ccccc4-c4ccccc4)CC3)c2c1`, the inhibition in series [1], in series [2] and in series [3] was greater than 90% in each case. The Ki in [4] stood at 0.53 nM; in series [6], 0.26 nM. In series [5], this compound gave an IC50 of 110 nM. For the same compound, the half-life at 1 µM in [7] amounted to 6.1 min. Besides, in series [8], the microsomal CLint at 1 µM is 226 µL/min/mg.

On to `Fc1cccc(-c2cc(F)ccc2N2CCN(CCCCc3c[nH]c4ccc(F)cc34)CC2)c1`, for which the inhibition in [1] is 97.5%; in series [2], 96%; in series [3] it was greater than 90%. The IC50 in [5] came out at 120 nM.

Turning to `Fc1ccc(-c2ccccc2N2CCN(CCc3c[nH]c4ccc(F)cc34)CC2)cc1`, the inhibition in series [1] is 94.9%; in series [2] it was 101%; in series [3] it was greater than 90%. This compound also gave a 50% inhibitory concentration (IC50) in series [5] of 590 nM. In series [7], this compound showed a half-life at 1 µM of 9.6 min. The microsomal CLint at 1 µM in [8] is 144 µL/min/mg.

For `Cc1cccc(-c2ccccc2N2CCN(CCc3c[nH]c4ccc(F)cc34)CC2)c1`, the inhibition in series [1] was 97.3%; in series [2] it was 98.1%; in series [3], greater than 90%. The compound further gave an IC50 in series [5] of 160 nM.

`COc1ccc(C(CN(C)C)C2(O)CCCCC2)cc1` (stereo not given) [VENLAFAXINE]: the Activity in series [13] was found to be 35%.

Turning to `c1ccc(-c2ccccc2N2CCN(CCc3cc4ccccc4o3)CC2)cc1`, the figures for the inhibition in [1], in [2] and in series [3] were 96.4%, 97.7% and greater than 90%, respectively. Inhibition in series [5] was half-maximal at 2900 nM (IC50).

For the compound `Fc1ccc2[nH]cc(CCCN3CCN(c4ccccc4-c4ccccc4)CC3)c2c1`, the inhibition in series [1], in series [2] and in series [3] was greater than 90% in each case. Also, the Ki is 13 nM in series [4] and 1.1 nM in series [6]. Half-maximal inhibition in series [5] (IC50) required 7.6 nM.

Turning to `COc1ccccc1N1CCN(CCCN2CCOc3ccccc32)CC1`, in series [14], the Ki amounted to 195 nM.

On to `Cc1ccc(Sc2ccccc2N2CCNCC2)c(C)c1` [VORTIOXETINE], for which, in series [10], the Activity is 48 - 52%.

For `N#Cc1ccc2[nH]cc(CCN3CCN(c4ccccc4-c4ccccc4)CC3)c2c1`, the results for the inhibition in series [1], in [2] and in series [3] were 93.7%, 97.6% and greater than 90%, respectively. For the same compound, inhibition in [5] was half-maximal at 190 nM (IC50).

Compound `Fc1cc2c(c(OCCNCCCc3c[nH]c4ccc(F)cc34)c1)OCCC2` had a Ki in [14] of 0.47 nM.

With `Fc1cccc(-c2ccccc2N2CCN(CCCc3c[nH]c4ccc(F)cc34)CC2)c1`, the inhibition in series [1], in series [2] and in series [3] was greater than 90% in each case. The Ki in series [4] was found to be 8.1 nM; in series [6] it was 1.1 nM. Also, the IC50 in series [5] worked out at 42 nM. In series [7], this compound displayed a half-life at 1 µM of 27.7 min. The microsomal CLint at 1 µM in series [8] came to 50 µL/min/mg.

In the case of `c1ccc(-c2ccccc2N2CCN(CCc3coc4ccccc34)CC2)cc1`, the inhibition in series [1] is 102%; in series [2] it was 99.5%; in series [3] it was greater than 90%. This compound also had an IC50 in [5] of 210 nM.

As for `Fc1cccc(-c2ccccc2N2CCN(CCc3c[nH]c4ccc(F)cc34)CC2)c1`, the inhibition in series [1] is 0.79%; in [2], greater than 90%; in series [3], greater than 90%. The values for the inhibitory constant (Ki) in [4] and in series [6] were 5.6 nM and 0.79 nM, respectively. In addition, in series [5], the 50% inhibitory concentration (IC50) was 150 nM. In series [7], this compound returned a half-life at 1 µM of 9 min. In addition, in [8], the microsomal CLint at 1 µM stood at 155 µL/min/mg.

With `N#Cc1ccc(-c2ccccc2N2CCN(CCc3c[nH]c4ccc(F)cc34)CC2)cc1`, the inhibition in series [1] stood at 97.3%; in [2], 99.5%; in series [3], 84.2%.

With `Cc1ccc(-c2ccccc2N2CCN(CCc3c[nH]c4ccc(F)cc34)CC2)cc1`, the results for the inhibition in [1], in series [2] and in series [3] were 99.5%, 101% and greater than 90%, respectively. Besides, half-maximal inhibition in [5] (IC50) required 1700 nM.
